Test system: PCA (passive cutaneous anaphylaxis) reaction
Assay: Anti-allergic effect: PCA (passive cutaneous anaphylaxis) reaction in rats
Type: in vivo, rats (Wister-strain, male)
Settings: 20 mg/kg, oral, 1 hour before challenge, control 10.7 ± 1.0
Method: PCA (passive cutaneous anaphylaxis) reaction in rats was taken as an index to an anti-allergic effect of the compound of the present invention.
In order to perform sensitization, anti-DNP-Asc (dinitrophenylated Ascaris extracts) serum diluted with saline was injected intradermally at 4 sites on the shaved back of groups of 10 Wister-strain male rats (6 weeks of age). 1 hour after oral administration of the test drug, the mixture of equivalent amounts of DNP-Asc (5 mg/ml) and 2% Evans blue were intravenously injected to generate PCA reaction. 30 minutes thereafter, rats were killed by decapitation and exsanguinated. The skin was opened in order to evaluate the leakage of blue dye. The obtained skin was dissolved in 2N potassium hydroxide, then 2N phosphoric acid and acetone were added thereto. The amount of dye was determined by measurement of absorbance at 620 nm after centrifugation.

| SMILES | Leak of Dye [μg/site] |
| --- | --- |
| Cn1c(=O)c2[nH]cnc2n(C)c1=O [Theophylline, reference compound] | 3.5 ± 1.3 |
| Cn1c(=O)c2c(N)ncnc2n(C)c1=O [compound 9, 5-amino-1,3-dimethylpyrimido[4,5-d]pyrimidine-2,4-dione] | 5.9 ± 1.2 |
| CNc1ncc2c(=O)n(C)c(=O)n(C)c2n1 [compound 8, 7-methylamino-1,3-dimethylpyrimido[4,5-d]pyrimidine-2,4-dione] | 7.6 ± 1.6 |
| Cn1c(=O)c2cnc(N)nc2n(C)c1=O [compound 6, 7-amino-1,3-dimethylpyrimido[4,5-d]pyrimidine-2,4-dione] | 5.0 ± 0.9 |

Same assay, conditions: 50 mg/kg, oral, 1 hour before challenge, control 10.7 ± 1.0

| SMILES | Leak of Dye [μg/site] |
| --- | --- |
| Cc1ncc2c(=O)n(C)c(=O)n(C)c2n1 [compound 3, 1,3,7-trimethylpyrimido[4,5-d]pyrimidine-2,4-dione] | 4.2 ± 0.5 |
| CNc1ncc2c(=O)n(C)c(=O)n(C)c2n1 [compound 8, 7-methylamino-1,3-dimethylpyrimido[4,5-d]pyrimidine-2,4-dione] | 2.8 ± 0.7 |
| Cn1c(=O)c2cnc(-c3ccccc3)nc2n(C)c1=O [compound 2, 7-phenyl-1,3-dimethylpyrimido[4,5-d]pyrimidine-2,4-dione] | 8.2 ± 0.9 |
| Cn1c(=O)c2cnc(N)nc2n(C)c1=O [compound 6, 7-amino-1,3-dimethylpyrimido[4,5-d]pyrimidine-2,4-dione] | 2.3 ± 0.7 |
| Cn1c(=O)c2cnc(C(F)(F)F)nc2n(C)c1=O [compound 4, 7-trifluoromethyl-1,3-dimethylpyrimido[4,5-d]pyrimidine-2,4-dione] | 6.6 ± 1.1 |
| Cn1c(=O)c2cncnc2n(C)c1=O [compound 5, 1,3-dimethylpyrimido[4,5-d]pyrimidine-2,4-dione] | 4.1 ± 0.8 |

Same assay, conditions: 100 mg/kg, oral, 1 hour before challenge, control 10.7 ± 1.0

| SMILES | Leak of Dye [μg/site] |
| --- | --- |
| CCn1c(=O)c2c(N)ncnc2n(CC)c1=O [compound 10, 5-amino-1,3-diethylpyrimido[4,5-d]pyrimidine-2,4-dione] | 1.6 ± 0.4 |
| Cc1nc(N)c2c(=O)n(C)c(=O)n(C)c2n1 [compound 12, 5-amino-1,3,7-trimethylpyrimido[4,5-d]pyrimidine-2,4-dione] | 1.0 ± 0.3 |
| CC(C)Cn1c(=O)n(C)c(=O)c2cnc(N)nc21 [compound 18, 7-amino-1-iso-butyl 3-methylpyrimido[4,5-d]pyrimidine-2,4-dione] | 4.0 ± 0.6 |
| Cn1c(=O)c2c(N)ncnc2n(C)c1=O [compound 9, 5-amino-1,3-dimethylpyrimido[4,5-d]pyrimidine-2,4-dione] | 0.6 ± 0.1 |
| CCn1c(=O)c2cnc(N)nc2n(CC)c1=O [compound 17, 7-amino-1,3-diethyl-pyrimido[4,5-d]pyrimidine-2,4-dione] | 2.4 ± 0.7 |
| CNc1ncnc2c1c(=O)n(C)c(=O)n2C [compound 16, 5-methylamino-1,3-dimethylpyrimido[4,5-d]pyrimidine-2,4-dione] | 1.7 ± 0.6 |
| Cn1c(=O)c2cnc(N)nc2n(C)c1=O [compound 6, 7-amino-1,3-dimethylpyrimido[4,5-d]pyrimidine-2,4-dione] | 0.7 ± 0.2 |
| CC(C)Cn1c(=O)n(C)c(=O)c2c(N)ncnc21 [compound 11, 5-amino-1-iso-butyl-3-methylpyrimido[4,5-d]pyrimidine-2,4-dione] | 2.9 ± 0.8 |
| Cn1c(=O)c2cnc(N)nc2n(-c2ccccc2)c1=O [compound 7, 7-amino-1-phenyl-3-methylpyrimido[4,5-d]pyrimidine-2,4-dione] | 5.4 ± 0.7 |
| Cn1c(=O)c2c(N)nc(N)nc2n(C)c1=O [compound 14, 5,7-diamino-1,3-dimethylpyrimido[4,5-d]pyrimidine-2,4-dione] | 1.9 ± 0.5 |

Same assay, conditions: Rattus norvegicus, 20 mg/kg, oral, 1 hour before challenge, inhibition of dye leakage

| SMILES | inhibition in vivo at 20 mg/kg [%] |
| --- | --- |
| Cn1c(=O)c2[nH]cnc2n(C)c1=O [Theophylline, reference compound] | 67.3 |
| Cn1c(=O)c2c(N)ncnc2n(C)c1=O [compound 9, 5-amino-1,3-dimethylpyrimido[4,5-d]pyrimidine-2,4-dione] | 44.9 |
| CNc1ncc2c(=O)n(C)c(=O)n(C)c2n1 [compound 8, 7-methylamino-1,3-dimethylpyrimido[4,5-d]pyrimidine-2,4-dione] | 29 |
| Cn1c(=O)c2cnc(N)nc2n(C)c1=O [compound 6, 7-amino-1,3-dimethylpyrimido[4,5-d]pyrimidine-2,4-dione] | 53.3 |

Same assay, conditions: Rattus norvegicus, 50 mg/kg, oral, 1 hour before challenge, inhibition of dye leakage

| SMILES | inhibition in vivo at 50 mg/kg [%] |
| --- | --- |
| Cc1ncc2c(=O)n(C)c(=O)n(C)c2n1 [compound 3, 1,3,7-trimethylpyrimido[4,5-d]pyrimidine-2,4-dione] | 60.7 |
| CNc1ncc2c(=O)n(C)c(=O)n(C)c2n1 [compound 8, 7-methylamino-1,3-dimethylpyrimido[4,5-d]pyrimidine-2,4-dione] | 73.8 |
| Cn1c(=O)c2cnc(-c3ccccc3)nc2n(C)c1=O [compound 2, 7-phenyl-1,3-dimethylpyrimido[4,5-d]pyrimidine-2,4-dione] | 23.4 |
| Cn1c(=O)c2cnc(N)nc2n(C)c1=O [compound 6, 7-amino-1,3-dimethylpyrimido[4,5-d]pyrimidine-2,4-dione] | 78.5 |
| Cn1c(=O)c2cnc(C(F)(F)F)nc2n(C)c1=O [compound 4, 7-trifluoromethyl-1,3-dimethylpyrimido[4,5-d]pyrimidine-2,4-dione] | 38.3 |
| Cn1c(=O)c2cncnc2n(C)c1=O [compound 5, 1,3-dimethylpyrimido[4,5-d]pyrimidine-2,4-dione] | 61.7 |

Same assay, conditions: Rattus norvegicus, 100 mg/kg, oral, 1 hour before challenge, inhibition of dye leakage

| SMILES | inhibition in vivo at 100 mg/kg [%] |
| --- | --- |
| CCn1c(=O)c2c(N)ncnc2n(CC)c1=O [compound 10, 5-amino-1,3-diethylpyrimido[4,5-d]pyrimidine-2,4-dione] | 85 |
| Cc1nc(N)c2c(=O)n(C)c(=O)n(C)c2n1 [compound 12, 5-amino-1,3,7-trimethylpyrimido[4,5-d]pyrimidine-2,4-dione] | 90.7 |
| CC(C)Cn1c(=O)n(C)c(=O)c2cnc(N)nc21 [compound 18, 7-amino-1-iso-butyl 3-methylpyrimido[4,5-d]pyrimidine-2,4-dione] | 62.6 |
| Cn1c(=O)c2c(N)ncnc2n(C)c1=O [compound 9, 5-amino-1,3-dimethylpyrimido[4,5-d]pyrimidine-2,4-dione] | 94.4 |
| CCn1c(=O)c2cnc(N)nc2n(CC)c1=O [compound 17, 7-amino-1,3-diethyl-pyrimido[4,5-d]pyrimidine-2,4-dione] | 77.6 |
| CNc1ncnc2c1c(=O)n(C)c(=O)n2C [compound 16, 5-methylamino-1,3-dimethylpyrimido[4,5-d]pyrimidine-2,4-dione] | 84.1 |
| Cn1c(=O)c2cnc(N)nc2n(C)c1=O [compound 6, 7-amino-1,3-dimethylpyrimido[4,5-d]pyrimidine-2,4-dione] | 93.5 |
| CC(C)Cn1c(=O)n(C)c(=O)c2c(N)ncnc21 [compound 11, 5-amino-1-iso-butyl-3-methylpyrimido[4,5-d]pyrimidine-2,4-dione] | 72.9 |
| Cn1c(=O)c2cnc(N)nc2n(-c2ccccc2)c1=O [compound 7, 7-amino-1-phenyl-3-methylpyrimido[4,5-d]pyrimidine-2,4-dione] | 49.5 |
| Cn1c(=O)c2c(N)nc(N)nc2n(C)c1=O [compound 14, 5,7-diamino-1,3-dimethylpyrimido[4,5-d]pyrimidine-2,4-dione] | 82.2 |

Test system: not listed separately
Assay: Acute toxicity test
Settings: mouse, in vivo, ip, mice, mortality for 7 days after administration, probit method
Method: The test compounds were administered to groups of 10 ddy-strain male mice (weighing about 20 g). LD50 values of the compounds of the invention were calculated by the probit method based on mortality for 7 days after drug administration.

| SMILES | LD50 at 168 h [mg/kg] |
| --- | --- |
| Cn1c(=O)c2cnc(N)nc2n(C)c1=O [compound 6, 7-amino-1,3-dimethylpyrimido[4,5-d]pyrimidine-2,4-dione] | 140 |

Same assay, conditions: mouse, in vivo, po, mice, mortality for 7 days after administration, probit method

| SMILES | LD50 at 168 h [mg/kg] |
| --- | --- |
| Cc1ncc2c(=O)n(C)c(=O)n(C)c2n1 [compound 3, 1,3,7-trimethylpyrimido[4,5-d]pyrimidine-2,4-dione] | 690 |
| CCn1c(=O)c2c(N)ncnc2n(CC)c1=O [compound 10, 5-amino-1,3-diethylpyrimido[4,5-d]pyrimidine-2,4-dione] | 748 |
| Cc1nc(N)c2c(=O)n(C)c(=O)n(C)c2n1 [compound 12, 5-amino-1,3,7-trimethylpyrimido[4,5-d]pyrimidine-2,4-dione] | 707 |
| Cn1c(=O)c2cnc(N)nc2n(C)c1=O [compound 6, 7-amino-1,3-dimethylpyrimido[4,5-d]pyrimidine-2,4-dione] | 940 |
